The subject of series [1] is Pseudomonas aeruginosa. The experiment in a line: Bactericidal activity against Pseudomonas aeruginosa PAO1 planktonic cells after 4 hrs by BacTiter-Glo assay. The settings on record: PAO1, 4 h, read-out: ED50 (the source's name). In kind it is functional.
The subject of series [2] is Pseudomonas aeruginosa. The experiment in a line: Induction of biofilm eradication of Pseudomonas aeruginosa PAO1 after 4 hrs by BacTiter-Glo assay. The class given is functional. The settings on record: PAO1, 4 h, read-out: ED50 (the source's name).
The subject of series [3] is Lipopolysaccharide (LPS). The experiment in a line: Displacement of BODIPY TR cadaverine from Pseudomonas aeruginosa LPS by fluorescence assay.
The subject of series [4] is Pseudomonas aeruginosa. The experiment in a line: Induction of Pseudomonas aeruginosa PAO1 agglutination after 1 hr by binocular stereo microscopic method. In kind it is functional.
Series [5] can be described thus: Hemolytic activity in sheep RBC after 4 hrs. The class given is ADME, cell-based, Ovis aries, Erythrocyte. The settings on record: sheep red blood cells (erythrocytes).
The subject of the next series is MRC5. The experiment in a line: Cytotoxicity against human MRC5 cells after 4 hrs by MTT assay. In kind it is cell-based. To be noted: MRC5, 4 h. (Tetrazolium dyes change colour on reduction, which living cells bring about.)
The next series has as its system HepG2. The experiment in a line: Cytotoxicity against human HepG2 cells after 4 hrs by MTT assay. The class given is cell-based. To be noted: HepG2, 4 h.
Series [6] is described as follows: Selectivity index, ratio of HC50 for sheep RBC to ED50 for induction of biofilm eradication of Pseudomonas aeruginosa PAO1. The class given is toxicity. The settings on record: sheep red blood cells (erythrocytes).
The nature of series [7]: Selectivity index, ratio of IC50 for human MRC5 cells to ED50 for induction of biofilm eradication of Pseudomonas aeruginosa PAO1. The class given is toxicity.
Series [8] concerns Pseudomonas aeruginosa. The experiment in a line: Bactericidal activity against Pseudomonas aeruginosa PAO1 planktonic cells at 1 uM after 4 hrs by BacTiter-Glo assay relative to control. The class given is functional.
In series [9] the test system is Lipopolysaccharide (LPS). The experiment in a line: Displacement of BODIPY TR cadaverine from Pseudomonas aeruginosa LPS at 1 uM by fluorescence assay relative to control.
A short description of series [10]: Hemolytic activity in sheep RBC at 10 uM after 4 hrs relative to control. In kind it is ADME, cell-based, Ovis aries, Erythrocyte. To be noted: sheep red blood cells (erythrocytes), read-out: Activity.

Consider four compounds from ChEMBL document CHEMBL4152261, “Positional scanning library applied to the human eosinophil cationic protein/RNase3 N-terminus reveals novel and potent anti-biofilm peptides” (Eur J Med Chem, 2018).

As a reminder, the HC50 is the concentration that lyses half of the red blood cells. Low values mean stronger haemolysis, high ones weaker haemolysis. Usually IC50 stands for the point on the concentration scale where inhibition reaches its midpoint. With H-RPFIRAQWFAIQHISPRTIAMRAINNYRWR-OH, the results for the EC50 with Pseudomonas aeruginosa [1] and in the series on Pseudomonas aeruginosa [2] were 0.55 µM and 2.37 µM, respectively. In addition, the ED50 in the series with Lipopolysaccharide (LPS) [3] came to 3.42 µM. This compound returned an MAC in the series on Pseudomonas aeruginosa [4] of 0.25 µM. Further, in [5], the HC50 at 4 h was over 150 µM. Further, the IC50 in the series on MRC5 was over 150 µM; in the series with HepG2 it was 95.8 µM. Moreover, the selectivity ratio in series [6] and in [7] was 16 to 60 throughout.

By inhibition is commonly meant the drop in the measured response relative to a control, in per cent. A low value points to little suppression. Consider `CC[C@H](C)[C@H](NC(=O)[C@H](C)NC(=O)[C@H](CCCNC(=N)N)NC(=O)[C@H](CCSC)NC(=O)[C@H](C)NC(=O)[C@@H](NC(=O)[C@@H](NC(=O)[C@H](CCCNC(=N)N)NC(=O)[C@@H]1CCCN1C(=O)[C@H](CO)NC(=O)[C@@H](NC(=O)[C@H](Cc1cnc[nH]1)NC(=O)[C@H](CCC(N)=O)NC(=O)[C@@H](NC(=O)[C@H](C)NC(=O)[C@H](Cc1ccccc1)NC(=O)[C@H](Cc1c[nH]c2ccccc12)NC(=O)[C@H](CCC(N)=O)NC(=O)[C@H](C)NC(=O)[C@H](CCCNC(=N)N)NC(=O)[C@@H](NC(=O)[C@H](Cc1ccccc1)NC(=O)[C@@H]1CCCN1C(=O)[C@@H](N)CCCNC(=N)N)[C@@H](C)O)[C@@H](C)CC)[C@@H](C)CC)[C@H](C)O)[C@@H](C)CC)C(=O)N[C@@H](CC(N)=O)C(=O)N[C@@H](CC(N)=O)C(=O)N[C@@H](Cc1ccc(O)cc1)C(=O)N[C@@H](CCCNC(=N)N)C(=O)N[C@@H](Cc1c[nH]c2ccccc12)C(=O)N[C@@H](CCCNC(=N)N)C(=O)O`, for which the EC50 came out at 1.34 µM in the series with Pseudomonas aeruginosa [1] and 6.62 µM in the series with Pseudomonas aeruginosa [2]. Besides, the ED50 with Lipopolysaccharide (LPS) [3] was 2.85 µM. In the series on Pseudomonas aeruginosa [4], the MAC was 1 µM. In series [5], this compound yielded a 50% haemolytic concentration (HC50) at 4 h of over 150 µM. Further, the IC50 was over 150 µM in the series on MRC5 and 74.4 µM in the series with HepG2. In the series on Pseudomonas aeruginosa [8], the Activity worked out at 50%. The compound further had an inhibition in the series on Lipopolysaccharide (LPS) [9] of 40%. Moreover, the hemolysis at 4 h, 10 µM in [10] was determined as 10%. Besides, the selectivity ratio in [6] and in series [7] was 16 to 60 each time.

For `CC[C@H](C)[C@H](NC(=O)[C@H](C)NC(=O)[C@H](CCCNC(=N)N)NC(=O)[C@H](CCSC)NC(=O)[C@H](C)NC(=O)[C@@H](NC(=O)[C@@H](NC(=O)[C@H](CCCNC(=N)N)NC(=O)[C@@H]1CCCN1C(=O)[C@H](CO)NC(=O)[C@@H](NC(=O)[C@H](Cc1cnc[nH]1)NC(=O)[C@@H](NC(=O)[C@@H](NC(=O)[C@H](C)NC(=O)[C@H](Cc1ccccc1)NC(=O)[C@H](Cc1c[nH]c2ccccc12)NC(=O)[C@H](CCC(N)=O)NC(=O)[C@H](C)NC(=O)[C@H](CCCNC(=N)N)NC(=O)[C@@H](NC(=O)[C@H](Cc1ccccc1)NC(=O)[C@@H]1CCCN1C(=O)[C@@H](N)CCCNC(=N)N)[C@H](C)O)[C@@H](C)CC)[C@@H](C)CC)[C@@H](C)CC)[C@@H](C)O)[C@@H](C)CC)C(=O)N[C@@H](CC(N)=O)C(=O)N[C@@H](CC(N)=O)C(=O)N[C@@H](Cc1ccc(O)cc1)C(=O)N[C@@H](CCCNC(=N)N)C(=O)N[C@@H](Cc1c[nH]c2ccccc12)C(=O)N[C@@H](CCCNC(=N)N)C(=O)O`, the EC50 in the series on Pseudomonas aeruginosa [1] is 0.44 µM; in the series on Pseudomonas aeruginosa [2] it was 3.19 µM. Also, the ED50 in the series with Lipopolysaccharide (LPS) [3] stood at 1.66 µM. Further, the MAC in the series with Pseudomonas aeruginosa [4] turned out to be 0.25 µM. The compound also displayed an HC50 at 4 h in series [5] of over 100 µM. Further, the concentration for half-maximal inhibition (IC50) in the series with MRC5 is over 100 µM; with HepG2, 59.6 µM. Also, the selectivity ratio in series [6] and in [7] was 16 to 60 each time.

On to H-RPFTRAQIFAIQHISPRTIAMRAINNYRWR-OH, for which the EC50 came out at 0.25 µM with Pseudomonas aeruginosa [1] and 4.37 µM with Pseudomonas aeruginosa [2]. In the series on Lipopolysaccharide (LPS) [3], this compound displayed an ED50 of 3.07 µM. The compound further gave an MAC in the series with Pseudomonas aeruginosa [4] of 0.125 µM. In addition, in [5], the HC50 at 4 h was over 150 µM. Also, the IC50 in the series with MRC5 was over 150 µM; with HepG2 it was 172 µM. Further, the selectivity ratio in series [6] and in [7] was 16 to 60 throughout.
